According to PubChem BioAssay (NCI):
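GI50 marks 50% less growth. TGI: total growth inhibition.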

Key:
Assay in all cases: growth of human tumour cells (NCI), 384-well format
MOLT-4 leukemia = system: MOLT-4 leukemia
T-47D breast = system: T-47D breast
HT29 colon = system: HT29 colon
NCI-H322M lung = system: NCI-H322M lung
A549 NSCLC = system: A549 NSCLC
MCF7 breast = system: MCF7 breast
OVCAR-5 ovarian = system: OVCAR-5 ovarian
SN12C renal = system: SN12C renal
NCI-H23 lung = system: NCI-H23 lung
SK-MEL-28 melanoma = system: SK-MEL-28 melanoma
RXF 393 renal = system: RXF 393 renal
COLO 205 colon = system: COLO 205 colon
IGROV1 ovarian = system: IGROV1 ovarian
SF-295 CNS = system: SF-295 CNS
EKVX NSCLC = system: EKVX NSCLC
OVCAR-4 ovarian = system: OVCAR-4 ovarian
UACC-257 melanoma = system: UACC-257 melanoma
DU-145 prostate = system: DU-145 prostate
U251 glioblastoma = system: U251 glioblastoma
NCI/ADR-RES ovarian = system: NCI/ADR-RES ovarian
MDA-MB-468 breast = system: MDA-MB-468 breast
RPMI-8226 leukemia = system: RPMI-8226 leukemia
LOX IMVI melanoma = system: LOX IMVI melanoma
CAKI-1 renal = system: CAKI-1 renal
HCT-116 colon = system: HCT-116 colon
SNB-19 CNS = system: SNB-19 CNS
TK-10 renal = system: TK-10 renal
SR leukemia = system: SR leukemia
UACC-62 melanoma = system: UACC-62 melanoma
SK-MEL-5 melanoma = system: SK-MEL-5 melanoma
OVCAR-8 ovarian = system: OVCAR-8 ovarian
NCI-H226 lung = system: NCI-H226 lung
HCC-2998 colon = system: HCC-2998 colon
SK-OV-3 ovarian = system: SK-OV-3 ovarian
SNB-75 CNS = system: SNB-75 CNS
SF-268 CNS = system: SF-268 CNS
M14 melanoma = system: M14 melanoma
HS 578T breast = system: HS 578T breast
KM12 colon = system: KM12 colon
HCT-15 colon = system: HCT-15 colon
NCI-H522 lung = system: NCI-H522 lung
HL-60(TB) leukemia = system: HL-60(TB) leukemia
BT-549 breast = system: BT-549 breast
HOP-92 NSCLC = system: HOP-92 NSCLC
MALME-3M melanoma = system: MALME-3M melanoma
SF-539 CNS = system: SF-539 CNS
HOP-62 NSCLC = system: HOP-62 NSCLC
PC-3 prostate = system: PC-3 prostate
OVCAR-3 ovarian = system: OVCAR-3 ovarian
A498 renal = system: A498 renal
NCI-H460 NSCLC = system: NCI-H460 NSCLC
ACHN renal = system: ACHN renal
MDA-MB-231 breast = system: MDA-MB-231 breast
MDA-MB-435 melanoma = system: MDA-MB-435 melanoma

For `CCc1c[nH]c2ncnc(N3CC[C@](N)(CNC(=O)c4ccc(F)cc4F)C3)c12`, the GI50 (MOLT-4 leukemia) was 0.237 µM, the TGI (MOLT-4 leukemia) was 1.76 µM and the GI50 (T-47D breast) was 0.343 µM. It also gave a TGI (T-47D breast) greater than 100 µM, a GI50 (HT29 colon) of 3.98 µM and a TGI (HT29 colon) greater than 100 µM. The GI50 (NCI-H322M lung) was 7.12 µM, the TGI (NCI-H322M lung) was greater than 100 µM and the GI50 (A549 NSCLC) was 10.8 µM. It also gave a TGI (A549 NSCLC) greater than 100 µM, a GI50 (MCF7 breast) of 0.375 µM and a TGI (MCF7 breast) greater than 100 µM. The GI50 (OVCAR-5 ovarian) was 4.4 µM, the TGI (OVCAR-5 ovarian) was 55.8 µM and the GI50 (SN12C renal) was 7.5 µM. The TGI (SN12C renal) was greater than 100 µM, the GI50 (NCI-H23 lung) was 13.8 µM and the TGI (NCI-H23 lung) was greater than 100 µM. The GI50 (SK-MEL-28 melanoma) was 9.04 µM, the TGI (SK-MEL-28 melanoma) was greater than 100 µM and the GI50 (RXF 393 renal) was 3.34 µM. For the same molecule, the TGI (RXF 393 renal) was greater than 100 µM, the GI50 (COLO 205 colon) was 4.95 µM and the TGI (COLO 205 colon) was 28.6 µM. For the same molecule, the GI50 (IGROV1 ovarian) was 0.149 µM, the TGI (IGROV1 ovarian) was 1.71 µM and the GI50 (SF-295 CNS) was 1.95 µM. The TGI (SF-295 CNS) was greater than 100 µM, the GI50 (EKVX NSCLC) was 7.28 µM and the TGI (EKVX NSCLC) was 46.2 µM. The GI50 (OVCAR-4 ovarian) was 32 µM, the TGI (OVCAR-4 ovarian) was greater than 100 µM and the GI50 (UACC-257 melanoma) was 7.7 µM. For the same molecule, the TGI (UACC-257 melanoma) was 31.1 µM, the GI50 (DU-145 prostate) was 6.69 µM and the TGI (DU-145 prostate) was greater than 100 µM. The GI50 (U251 glioblastoma) was 2.79 µM, the TGI (U251 glioblastoma) was greater than 100 µM and the GI50 (NCI/ADR-RES ovarian) was 12.3 µM. It also gave a TGI (NCI/ADR-RES ovarian) greater than 100 µM, a GI50 (MDA-MB-468 breast) of 0.454 µM and a TGI (MDA-MB-468 breast) of 18.9 µM. It also gave a GI50 (RPMI-8226 leukemia) of 3.38 µM, a TGI (RPMI-8226 leukemia) of 30.2 µM and a GI50 (LOX IMVI melanoma) of 18.8 µM. It also gave a TGI (LOX IMVI melanoma) greater than 100 µM, a GI50 (CAKI-1 renal) of 5.18 µM and a TGI (CAKI-1 renal) greater than 100 µM. For the same molecule, the GI50 (HCT-116 colon) was 6.21 µM, the TGI (HCT-116 colon) was greater than 100 µM and the GI50 (SNB-19 CNS) was 3.49 µM. For the same molecule, the TGI (SNB-19 CNS) was greater than 100 µM, the GI50 (TK-10 renal) was 1.26 µM and the TGI (TK-10 renal) was 45.3 µM. The GI50 (SR leukemia) was 0.0603 µM, the TGI (SR leukemia) was 1.98 µM and the GI50 (UACC-62 melanoma) was 4.26 µM. It also gave a TGI (UACC-62 melanoma) of 25.1 µM, a GI50 (SK-MEL-5 melanoma) of 12.9 µM and a TGI (SK-MEL-5 melanoma) of 28.9 µM. For the same molecule, the GI50 (OVCAR-8 ovarian) was 15 µM, the TGI (OVCAR-8 ovarian) was greater than 100 µM and the GI50 (NCI-H226 lung) was 9.86 µM. For the same molecule, the TGI (NCI-H226 lung) was greater than 100 µM, the GI50 (HCC-2998 colon) was 3.13 µM and the TGI (HCC-2998 colon) was 88 µM. It also gave a GI50 (SK-OV-3 ovarian) of 0.892 µM, a TGI (SK-OV-3 ovarian) greater than 100 µM and a GI50 (SNB-75 CNS) of 0.626 µM. The TGI (SNB-75 CNS) was greater than 100 µM, the GI50 (SF-268 CNS) was greater than 100 µM and the TGI (SF-268 CNS) was greater than 100 µM. For the same molecule, the GI50 (M14 melanoma) was 14.4 µM, the TGI (M14 melanoma) was greater than 100 µM and the GI50 (HS 578T breast) was 2.53 µM. The TGI (HS 578T breast) was 95.3 µM, the GI50 (KM12 colon) was 0.959 µM and the TGI (KM12 colon) was greater than 100 µM. It also gave a GI50 (HCT-15 colon) of 5.47 µM, a TGI (HCT-15 colon) greater than 100 µM and a GI50 (NCI-H522 lung) of 11 µM. It also gave a TGI (NCI-H522 lung) of 35.8 µM, a GI50 (HL-60(TB) leukemia) of 10.4 µM and a TGI (HL-60(TB) leukemia) of 23.5 µM. The GI50 (BT-549 breast) was 1.27 µM, the TGI (BT-549 breast) was 18.4 µM and the GI50 (HOP-92 NSCLC) was 29.6 µM. It also gave a TGI (HOP-92 NSCLC) greater than 100 µM, a GI50 (MALME-3M melanoma) of 8.62 µM and a TGI (MALME-3M melanoma) of 28.6 µM. For the same molecule, the GI50 (SF-539 CNS) was 0.442 µM, the TGI (SF-539 CNS) was greater than 100 µM and the GI50 (HOP-62 NSCLC) was 6.34 µM. It also gave a TGI (HOP-62 NSCLC) of 82.3 µM, a GI50 (PC-3 prostate) of 0.446 µM and a TGI (PC-3 prostate) of 21.8 µM. The GI50 (OVCAR-3 ovarian) was 8.07 µM, the TGI (OVCAR-3 ovarian) was greater than 100 µM and the GI50 (A498 renal) was 0.136 µM. It also gave a TGI (A498 renal) of 2.09 µM, a GI50 (NCI-H460 NSCLC) of 0.536 µM and a TGI (NCI-H460 NSCLC) of 20.2 µM. For the same molecule, the GI50 (ACHN renal) was 4.85 µM, the TGI (ACHN renal) was greater than 100 µM and the GI50 (MDA-MB-231 breast) was 68.8 µM. It also gave a TGI (MDA-MB-231 breast) greater than 100 µM, a GI50 (MDA-MB-435 melanoma) of 15.4 µM and a TGI (MDA-MB-435 melanoma) of 73.4 µM.
